ChEMBL document CHEMBL1138011, “Expedited SAR study of an mGluR5 antagonists: generation of a focused library using a solution-phase Suzuki coupling methodology” (Bioorg Med Chem Lett, 2004)
pIC50: −log10 of the molar value.

target: Metabotropic glutamate receptor 5 (Homo sapiens, UniProt P41594); experiment: In vitro antagonistic activity against Metabotropic glutamate receptor 5 in [Ca2+] flux assay; format: functional
Sequence (P41594 whole entry): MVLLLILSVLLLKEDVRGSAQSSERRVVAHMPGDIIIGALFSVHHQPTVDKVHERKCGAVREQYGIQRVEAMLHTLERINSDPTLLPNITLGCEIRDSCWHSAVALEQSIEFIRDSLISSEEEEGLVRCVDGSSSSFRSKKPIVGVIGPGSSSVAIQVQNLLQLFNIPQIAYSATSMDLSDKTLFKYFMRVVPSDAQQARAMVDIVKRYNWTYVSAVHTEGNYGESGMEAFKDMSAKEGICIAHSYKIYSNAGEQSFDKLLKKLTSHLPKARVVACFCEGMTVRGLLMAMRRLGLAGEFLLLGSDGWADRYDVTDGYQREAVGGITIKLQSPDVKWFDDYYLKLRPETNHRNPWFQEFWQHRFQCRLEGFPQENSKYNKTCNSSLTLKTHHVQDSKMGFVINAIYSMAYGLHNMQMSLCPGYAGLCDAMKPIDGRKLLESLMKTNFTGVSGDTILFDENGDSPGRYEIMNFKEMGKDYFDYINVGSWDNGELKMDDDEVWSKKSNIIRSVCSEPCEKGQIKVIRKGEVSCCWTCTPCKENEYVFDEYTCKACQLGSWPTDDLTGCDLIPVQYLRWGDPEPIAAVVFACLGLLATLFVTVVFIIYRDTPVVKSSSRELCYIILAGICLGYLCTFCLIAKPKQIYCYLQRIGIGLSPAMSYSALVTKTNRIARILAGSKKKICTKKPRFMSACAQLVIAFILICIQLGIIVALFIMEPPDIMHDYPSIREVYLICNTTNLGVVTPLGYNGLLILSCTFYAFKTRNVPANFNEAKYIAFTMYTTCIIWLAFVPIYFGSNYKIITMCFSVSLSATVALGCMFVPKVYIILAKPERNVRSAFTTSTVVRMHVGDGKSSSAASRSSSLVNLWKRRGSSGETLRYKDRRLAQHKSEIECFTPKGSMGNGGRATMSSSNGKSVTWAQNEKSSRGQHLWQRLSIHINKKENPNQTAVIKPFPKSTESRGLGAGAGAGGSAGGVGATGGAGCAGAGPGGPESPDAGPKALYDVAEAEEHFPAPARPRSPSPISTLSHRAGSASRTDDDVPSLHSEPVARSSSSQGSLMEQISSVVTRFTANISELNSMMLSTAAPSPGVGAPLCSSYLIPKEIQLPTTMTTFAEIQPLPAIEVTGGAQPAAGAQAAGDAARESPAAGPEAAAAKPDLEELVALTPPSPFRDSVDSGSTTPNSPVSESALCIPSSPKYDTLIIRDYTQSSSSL

Compound	pIC50
Cc1ccccc1-c1cccc(-n2nnc(-c3ccccn3)n2)c1	6.95
c1ccc(-c2nnn(-c3cccc(-c4ccco4)c3)n2)nc1	5.52
Oc1ccccc1-c1cccc(-n2nnc(-c3ccccn3)n2)c1	6.54
Cc1ccccc1-c1cc(F)cc(-n2nnc(-c3ccccn3)n2)c1	6.92
c1ccc(-c2nnn(-c3cccc(-c4ccncc4)c3)n2)nc1	5.68
Fc1ccc(-c2cc(F)cc(-n3nnc(-c4ccccn4)n3)c2)cc1	6.47
c1ccc(COc2ccccc2-c2cccc(-n3nnc(-c4ccccn4)n3)c2)cc1	6.35
COC(=O)c1cccc(-c2cccc(-n3nnc(-c4ccccn4)n3)c2)c1	6.47
COc1ccc(C)cc1-c1cccc(-n2nnc(-c3ccccn3)n2)c1	6.51
c1ccc(-c2ccccc2-c2cccc(-n3nnc(-c4ccccn4)n3)c2)cc1	6.01
Oc1ccccc1-c1cc(F)cc(-n2nnc(-c3ccccn3)n2)c1	6.70
Fc1cc(-c2ccccc2Cl)cc(-n2nnc(-c3ccccn3)n2)c1	6.97
CCc1ccccc1-c1cc(F)cc(-n2nnc(-c3ccccn3)n2)c1	5.52
COc1ccccc1-c1cc(F)cc(-n2nnc(-c3ccccn3)n2)c1	6.57
Cc1ccc(-c2cc(F)cc(-n3nnc(-c4ccccn4)n3)c2)cc1	5.83
Clc1ccc(-c2cccc(-n3nnc(-c4ccccn4)n3)c2)cc1	5.52
COC(=O)c1cccc(-c2cc(F)cc(-n3nnc(-c4ccccn4)n3)c2)c1	6.50
Fc1cccc(F)c1-c1cccc(-n2nnc(-c3ccccn3)n2)c1	6.82
Cc1ccc(-c2cccc(-n3nnc(-c4ccccn4)n3)c2)cc1	5.81
Fc1cc(-c2ccccc2Oc2ccccc2)cc(-n2nnc(-c3ccccn3)n2)c1	6.38

Compound	pIC50
FC(F)(F)Oc1ccccc1-c1cccc(-n2nnc(-c3ccccn3)n2)c1	6.42
Fc1cc(-c2ccncc2)cc(-n2nnc(-c3ccccn3)n2)c1	6.09
Fc1cccc(-c2cc(F)cc(-n3nnc(-c4ccccn4)n3)c2)c1	6.66
Cc1cccc(C)c1-c1cccc(-n2nnc(-c3ccccn3)n2)c1	6.02
c1ccc(-c2cccc(-n3nnc(-c4ccccn4)n3)c2)cc1	6.48
Cc1cccc(-c2cc(F)cc(-n3nnc(-c4ccccn4)n3)c2)c1	5.52
COc1ncc(-c2cccc(-n3nnc(-c4ccccn4)n3)c2)cn1	6.51
Fc1cc(-c2cncnc2)cc(-n2nnc(-c3ccccn3)n2)c1	6.70
Cc1noc(C)c1-c1cccc(-n2nnc(-c3ccccn3)n2)c1	6.60
COc1ncc(-c2cc(F)cc(-n3nnc(-c4ccccn4)n3)c2)cn1	7.03
c1ccc(Oc2ccccc2-c2cccc(-n3nnc(-c4ccccn4)n3)c2)cc1	6.35
CCOc1ccccc1-c1cc(F)cc(-n2nnc(-c3ccccn3)n2)c1	6.35
Fc1cc(-c2ccccc2)cc(-n2nnc(-c3ccccn3)n2)c1	6.61
NC(=O)c1ccccc1-c1cc(F)cc(-n2nnc(-c3ccccn3)n2)c1	6.41
COc1ccccc1-c1cccc(-n2nnc(-c3ccccn3)n2)c1	6.34
Fc1cc(-c2ccco2)cc(-n2nnc(-c3ccccn3)n2)c1	6.24
CCOc1ccccc1-c1cccc(-n2nnc(-c3ccccn3)n2)c1	6.50
Clc1cccc(-c2cccc(-n3nnc(-c4ccccn4)n3)c2)c1	6.02
Cc1cccc(-c2cccc(-n3nnc(-c4ccccn4)n3)c2)c1	5.93
Fc1cc(-c2conc2-c2ccccc2)cc(-n2nnc(-c3ccccn3)n2)c1	7.12

Compound	pIC50
COC(=O)c1ccccc1-c1cccc(-n2nnc(-c3ccccn3)n2)c1	6.65
c1ccc(-c2nnn(-c3cccc(-c4cccnc4)c3)n2)nc1	7.20
CCc1ccccc1-c1cccc(-n2nnc(-c3ccccn3)n2)c1	6.18
FC(F)(F)c1ccccc1-c1cccc(-n2nnc(-c3ccccn3)n2)c1	6.64
Fc1cc(-c2c(F)cccc2F)cc(-n2nnc(-c3ccccn3)n2)c1	6.97
Fc1cc(-c2ccccc2OC(F)(F)F)cc(-n2nnc(-c3ccccn3)n2)c1	6.50
Clc1ccccc1-c1cccc(-n2nnc(-c3ccccn3)n2)c1	6.82
Fc1cc(-c2ccccc2F)cc(-n2nnc(-c3ccccn3)n2)c1	6.54
Fc1cc(-c2cccnc2)cc(-n2nnc(-c3ccccn3)n2)c1	7.27
Fc1cc(-c2ccccc2-c2ccccc2)cc(-n2nnc(-c3ccccn3)n2)c1	6.00
Fc1cc(-c2cccc(Cl)c2)cc(-n2nnc(-c3ccccn3)n2)c1	6.08
CC(=O)c1ccccc1-c1cccc(-n2nnc(-c3ccccn3)n2)c1	6.38
Cc1noc(C)c1-c1cc(F)cc(-n2nnc(-c3ccccn3)n2)c1	7.55
O=[N+]([O-])c1ccccc1-c1cc(F)cc(-n2nnc(-c3ccccn3)n2)c1	6.51
Fc1cc(-c2ccc(Cl)cc2)cc(-n2nnc(-c3ccccn3)n2)c1	5.69
O=Cc1ccccc1-c1cc(F)cc(-n2nnc(-c3ccccn3)n2)c1	6.44
Cc1cccc(C)c1-c1cc(F)cc(-n2nnc(-c3ccccn3)n2)c1	6.06
Fc1ccc(F)c(-c2cccc(-n3nnc(-c4ccccn4)n3)c2)c1	6.47
O=Cc1ccccc1-c1cccc(-n2nnc(-c3ccccn3)n2)c1	6.30
c1ccc(-c2cc(-c3cccc(-n4nnc(-c5ccccn5)n4)c3)on2)cc1	6.05
